Consider 3 compounds from US6584980B1, “Tobacco products with stabilized additives having vitamin E activity” (Rousseau Research, Institute, priority 1998, dated 2003).

The conditions of data set [1]: tobacco air curing, vacuum infiltration; cited from earlier work.
The subject of data set [2] is smoker and non-smoker. Nature of the data set: Comparison of a normal filterless cigarette and a filterless cigarette with dry Vitamin E analog, smoked. The data set is classed as in vivo. From the text:
A comparison was made between a normal filterless cigarette and a filterless cigarette modified to include a substantially pure, “dry” form of Vitamin E analog. For this comparison, […] of CHESTERFIELD® tobacco were removed from a CHESTERFIELD® cigarette and mixed with 0.1 grams of Vitamin E acid succinate. The mixed tobacco blend was formed into a filterless cigarette using a Rizla auto rolling box. A control cigarette, without Vitamin E analog additive, was also formed using the same Rizla auto rolling box.

Data set [3] deals with non-tobacco user. The data set can be described thus: Comparison of a normal smokeless tobacco wad and a wad with dry Vitamin E analog, placed between cheek and gum. Particulars: 0.1 grams mixed with 10.0 grams SKOAL long cut smokeless tobacco, 1.0 gram wad between cheek and gum. The data set is classed as in vivo. From the text:
A third comparison was made between a normal wad of smokeless tobacco and a wad of smokeless tobacco modified to include a substantially pure, “dry” form of Vitamin E analog. For this comparison, 1.0 gram of unmodified SKOAL® long cut smokeless tobacco (i.e., snuff) was first placed in the mouth of a non-tobacco user between the cheek and gum. This unmodified smokeless tobacco produced a pleasant flavor but also a simultaneous burning sensation in the mouth, throat and esophagus which, along with an induced cough, forced the non-tobacco user to spit out the unmodified smokeless tobacco. To clear the burning sensation from mouth, the non-tobacco user washed mouth out with water. Nonetheless, the burning sensation persisted in the mouth and throat for over 5 minutes after the initial washing.
Approximately four hours later, long enough to ensure the sensitivity and the burning sensation had completely subsided, the non-tobacco user then mixed 0.1 grams of Vitamin E acid succinate obtained from the Eastman Chemical Corporation of Kingsport, Tenn. with 10.0 grams of SKOAL® long cut smokeless tobacco. A 1.0 gram wad of this Vitamin E modified smokeless tobacco was then placed in the mouth of the non-tobacco user between the cheek and gum. Like the unmodified snuff, this Vitamin E modified snuff produced a similar pleasant flavor.

Data set [4] deals with non-smoker. Nature of the data set: Comparison of a normal filtered cigarette and cigarettes with oily Vitamin E injected into the filter or the tobacco, puffs by a non-smoker. Particulars: for lung irritation and coughing: three puffs, non-smoker. The data set is classed as in vivo. From the text:
A second comparison was made between a normal filtered cigarette, a filtered cigarette with oily Vitamin E injected into the filter and oily Vitamin E injected into the length of the tobacco. In this second comparison, the control cigarette was a normal MARLBORO® cigarette. In two separate MARLBORO® cigarettes, oily Vitamin E was taken from a Vitamin E capsule with a syringe and injected into the filter of one cigarette and into the length of the tobacco of the other cigarette.
The three cigarettes where then lit with a butane lighter and three equal, alternating puffs were taken from each cigarette by a non-smoker. […] The cigarette with Vitamin E along the length of the tobacco yielded no irritation. Moreover, the flavor of the Vitamin E tobacco cigarette gave the impression of having been enhanced.

The conditions of data set [5]: stand-alone additive, apart from an alcohol mixture; cited from earlier work.

`Cc1c(C)c2c(c(C)c1O)CC[C@@](C)(CCC[C@H](C)CCC[C@H](C)CCCC(C)C)O2` [alpha-tocopherol]: the “diminution in concentration during the curing process” value in data set [1] was 25%.
Regarding `Cc1c(C)c2c(c(C)c1OC(=O)CCC(=O)O)CC[C@@](C)(CCC[C@H](C)CCC[C@H](C)CCCC(C)C)O2` [Vitamin E acid succinate, d-alpha tocopheryl acid succinate], the “throat or lung irritation when smoked” value in data set [2] (0.1 grams mixed with 7.5 grams CHESTERFIELD tobacco, filterless cigarette, smoker and non-smoker, control caused throat and lung irritation) is listed as “no throat or lung irritation”. For the same compound, the “throat or lung irritation, retest on the same samples” value in data set [2] (retest after several days and again after several weeks) was “the same results”. Also, in data set [3], the “irritation (burning sensation) of mouth, throat and esophagus” value is “completely non-irritating”.
Consider `Cc1c(C)c2c(c(C)c1O)CC[C@@](C)(CCC[C@H](C)CCC[C@H](C)CCCC(C)C)O2` [Vitamin E, d-alpha tocopherol], for which the “lung irritation and coughing” value is “less irritating but still induced an unpleasant lung reaction and a slight cough” in data set [4] (oily Vitamin E injected into the filter of a MARLBORO cigarette, control irritated lungs and induced coughing); “no irritation” in data set [4] (oily Vitamin E injected into the length of the tobacco of a MARLBORO cigarette). Besides, in data set [4] (retest after several days, taken to indicate the Vitamin E had oxidized/metabolized), the “beneficial effect on irritation, retest on the same samples” value is given as “the beneficial effect was gone”. In data set [5], the “neutralizing NNN” value was “ineffective”.
